“Also recorded” adds a separate entry of the source.
Columns and labels:
[1] = Steady-state fluorescence anisotropy in solvents and liposomes; type: physicochemical; settings: for steady-state anisotropy (a), DMPC: DMPC liposomes, 1/a vs. 1/[lipid] plot; for steady-state anisotropy (a), DMPC / steady-state anisotropy (a), DMPG / steady-state anisotropy (a), PBS / steady-state anisotropy (a), glycerol / steady-state anisotropy (a), octanol / steady-state anisotropy (a), DSPC: 37° C.; for steady-state anisotropy (a), DMPG: DMPG liposomes; for steady-state anisotropy (a), PBS / steady-state anisotropy (a), glycerol / steady-state anisotropy (a), octanol: 1 μM drug; for limiting fluorescence anisotropy a0: extrapolated to -25° C.; for limiting fluorescence anisotropy a0 / steady-state anisotropy (a), glycerol: glycerol; for steady-state anisotropy (a), DSPC: DSPC liposomes
Experimental: Steady-state fluorescence measurements were obtained on a SLM Model 4800C. spectrofluorometer with a thermostated cuvette compartment. This instrument was interfaced with an IBM PS/2 model 55 SX computer. Excitation and emission spectra were recorded with an excitation resolution of 8 nm and an emission resolution of 4 nm. In all cases spectra were corrected for background fluorescence and scatter from unlabeled lipids or from solvents by subtraction of the spectrum of a blank. Steady-state fluorescence intensity measurements were made in the absence of polarizer. Steady-state anisotropy (a) measurements were determined with the instrument in the "T-format" for simultaneous measurement of two polarized intensities. The alignment of polarizers were checked routinely using a dilute suspension of 0.25 μm polystyrene microspheres from Polysciences, Inc, Warrington, Pa., in water; anisotropy values of >0.99 were obtained. The anisotropy was calculated from a=(Ivv -GlVH)/(Ivv +GIVH), where G-IVH /IHH and the subscripts refer to vertical and horizontal orientations of the excitation and emission polarizers, respectively.
Anisotropy measurements for camptothecin, camptothecin carboxylate sodium salt, and 10,11-methylenedioxycamptothecin were conducted using exciting light of 370 nm and 420 nm long wave pass filters on each emission channel in order to isolate the fluorescence signal from background scatter and signal. For topotecan a 400 nm excitation wavelength and a 500 nm emission filter were used and for 9-aminocamptothecin a 375 nm excitation and a wavelength 420 nm emission filter were used. For AMC and CMC, a 370 nm excitation wavelength and a 400 nm emission filter were used. For 10-hydroxycamptothecin 375 nm excitation wavelength 500 nm emission filter was used. Emission filters were obtained from Oriel Corp. Stamford, Conn. The combination of exciting light and emission filters allows one to adequately separate the fluorescence from the background signal. The contribution of background fluorescence, together with scattered light, was typically less than 1% of the total intensity. Since the lactone ring of the camptothecin drug undergoes hydrolysis in aqueous medium, all measurements were completed within the shortest possible time, less than 1 minute after mixing the drug stock solution with PBS or the liposomes. In each case, analysis was initiated immediately after mixing the drug stock solution with PBS or with the liposomes. All measurements were performed at 37° C. unless otherwise noted.
While the spectral changes provide qualitative evidence that the camptothecin drugs bind the liposome membranes, fluorescence anisotropy titration, offers the most sensitive means for quantitatively assessing the extent of the binding. The fluorescence anisotropy titration was performed according to the method of Burke and Tritton, Biochemistry 24: 1768-1776 (1985).
A steady-state fluorescence anisotropy (a) measurement is related to the rotational rate of the fluorescent molecule through the Perrin Equation: […]
where a0 is the limiting fluorescence anisotropy value, that is, the anisotropy value in the absence of depolarizing rotations, T is the excited-state lifetime, and .phi. is the rotational correlative time of the fluorophore. According to Equation 1, changes in either the T or .phi. values of a fluorescent compound can modulate its steady-state anisotropy.
The limiting fluorescence anisotropy (a0) values were also measured. The maximum values of (a) were obtained by dissolving the camptothecin drugs in the viscous solvent glycerol and cooling the samples to low temperatures. Steady-stated anisotropy (a) values were determined for samples containing 1 μM drug at 37° C.
Where the solvent viscosity is high and temperature is low, depolarizing rotations are at a minimum. By extrapolating these (a) values to -25° C., the limiting anisotropy values (a0) for the camptothecin drugs, were determined. […]

[2] = HPLC assay of lactone ring hydrolysis, free in PBS or associated with liposomes or micelles; type: physicochemical; settings: for duration of stability when bound to liposomes / lactone hydrolysis when associated with liposomes: DMPC and DMPG liposomes; for duration of stability when bound to liposomes: 0.29M lipid; for C/L drug DMPC Lip. / t1/2 drug DMPC Lip.: DMPC liposomes; for C/L drug DMPG Lip. / t1/2 drug DMPG Lip.: DMPG liposomes; for effect of liposome lysis by sonication: 5 minutes sonication; for biologically active (lactone) form present after 48 hours: associated with DMPC or DMPG liposomes; for carboxylate/lactone ratio (C/L) free drug: final equilibrium; for t1/2 free drug: lactone hydrolysis
Experimental: A high performance liquid chromatography assay was used to determine the rate of hydrolysis of camptothecin and topotecan free in aqueous solution and to compare such rates with the rate of hydrolysis for the same drugs when bound to the DMPG and DMPC liposome membranes. The assay was conducted under near physiological conditions; the pH was 7.4, the temperature was 37° C. and the ionic strength was physiological. A Spectroflow model 980 fluorescence detector coupled to an HP 3392A integrator which acquired and processed the chromatograms, was used. For camptothecin, an Ultrasphere ODS C-18 250 mm long column was used. The mobile phase consisted of 32% acetonitrile, 67% 0.1M acetate buffer, pH 5.5, and 1% 01.M sodium dodecylsulfate at a flow rate of 1 mL/min. The detector was set to 370 nm excitation wavelength and a 418 nm long pass emission filter. A 1 μM solution of camptothecin in PBS was prepared and incubated at 37° C. Immediately after mixing the drug stock solution with PBS and at intervals of 5 min thereafter, 50 μL aliquots were taken out and mixed with 150 μL methanolic internal standard, 9-toluoylamidocamptothecin and either analyzed immediately or kept cold under dry ice. 150 μL of this mixture was diluted with 125 μL water and 200 μL was injected. The ratio of the peak areas corresponding to the intact lactone form of the camptothecin drug and the internal standard at a particular time was normalized to that at the time of mixing and was considered as the concentration of the intact lactone form.
For topotecan the excitation wavelength was 362 nm and the emission was observed through a 470 long wave pass filter. The stationary phase was Waters Nova-Pak C-18 150mm long column. The mobile phase consisted of 500 mL 0.1M KH2 PO4, 550 mL acetonitrile, 4.2 mL triethylamine (distilled over molecular sieves), 4.44 g sodium dioctylsulfosuccinate (DOSS), and 970 ml water. The pH was adjusted to 6.0 with H3 PO4. Internal standard solution contained 50×10^-9 g acridine from Eastman and 20×10^-3 M DOSS in methanol and was always kept cold at ≤-20° C. Next 150 μL or cold internal standard solution was mixed with 50 μL aliquot containing topotecan, centrifuged for 1 minute and the supernatant was either analyzed immediately or stored at -20° C. for analysis at a later time, within 2 hours. Samples were monitored at time points from 0 minutes, that is, immediately following dissolution, up to 72 hours.
The kinetics of lactone ring hydrolysis for free camptothecin, CMC and topotecan are shown in of FIGS. 7a, 7b and 7c. Analysis of the decay profile for camptothecin, CMC and topotecan free in PBS was accomplished using a nonlinear least squares program.

CCC1(O)C(=O)OCc2c1cc1n(c2=O)Cc2cc3c(Cl)c4c(cc3nc2-1)OCO4 (stereo not shown) [9-chloro-10,11-methylenedioxycamptothecin]
steady-state anisotropy (a), DMPC [1]: 0.202
steady-state anisotropy (a), DMPG [1]: 0.207
steady-state anisotropy (a), PBS [1]: 0.025
limiting fluorescence anisotropy a0 [1]: 0.367
steady-state anisotropy (a), glycerol [1]: 0.363
steady-state anisotropy (a), octanol [1]: 0.098
duration of stability when bound to liposomes [2]: at least 48 hours
C/L drug DMPC Lip. ([2]; pH 7.4, 37° C.): ~ 0
t1/2 drug DMPC Lip. ([2]; pH 7.4, 37° C.): > 72 h
C/L drug DMPG Lip. ([2]; pH 7.4, 37° C.): ~ 0
t1/2 drug DMPG Lip. ([2]; pH 7.4, 37° C.): > 72 h
effect of liposome lysis by sonication ([2]; DSPC MLVs): releases 9-chloro-10,11-methylenedioxycamptothecin which is then hydrolysed
effect of liposome lysis by sonication ([2]; DSPC MLVs, listed as CMC): at least partially released and hydrolysed
lactone ring not hydrolysed in pH 5 DSPC liposomes ([2]; DSPC MLVs, internal pH 5): More than 80%
biologically active (lactone) form present after 48 hours [2]: more than 97%
carboxylate/lactone ratio (C/L) free drug ([2]; free in PBS, pH 7.4, 37° C.): 6.4
half-life (t1/2) of free drug in PBS ([2]; free in PBS, pH 7.4, 37° C.): approximately 21 min
t1/2 free drug ([2]; free in PBS, pH 7.4, 37° C.): 21.3 min

CC[C@@]1(O)C(=O)OCc2c1cc1n(c2=O)Cc2cc3c(CN(C)C)c(O)ccc3nc2-1 [topotecan]
steady-state anisotropy (a), DMPC [1]: 0.125
steady-state anisotropy (a), DMPG [1]: 0.170
steady-state anisotropy (a), DSPC [1]: 0.059
steady-state anisotropy (a), PBS [1]: 0.008
limiting fluorescence anisotropy a0 [1]: 0.367
steady-state anisotropy (a), glycerol [1]: 0.320
steady-state anisotropy (a), octanol [1]: 0.071
lactone hydrolysis when associated with liposomes [2]: some hydrolysis at 1 hour; also recorded: stabilized to a greater degree in DMPG liposomes as compared to DMPC liposomes
C/L drug DMPC Lip. ([2]; pH 7.4, 37° C.): 3.4
t1/2 drug DMPC Lip. ([2]; pH 7.4, 37° C.): 1.25 h
C/L drug DMPG Lip. ([2]; pH 7.4, 37° C.): 0.42
t1/2 drug DMPG Lip. ([2]; pH 7.4, 37° C.): 1.6 h
carboxylate/lactone ratio (C/L) free drug ([2]; free in PBS, pH 7.4, 37° C.): 7.5
t1/2 free drug ([2]; free in PBS, pH 7.4, 37° C.): 21.1 min

CC[C@@]1(O)C(=O)OCc2c1cc1n(c2=O)Cc2cc3ccccc3nc2-1 [camptothecin]
steady-state anisotropy (a), DMPC [1]: 0.127
steady-state anisotropy (a), DMPG [1]: 0.122
steady-state anisotropy (a), DSPC [1]: 0.087
steady-state anisotropy (a), PBS [1]: 0.007
enhancement in steady-state anisotropy (a) value ([1]; bound to DMPG liposomes): 17 -fold
limiting fluorescence anisotropy a0 [1]: 0.383
steady-state anisotropy (a), glycerol [1]: 0.334
steady-state anisotropy (a), octanol [1]: 0.051
lactone ring hydrolysis at raised drug concentration ([2]; 2 mM, lipid to drug ratio 150, DMPC): no evidence of lactone ring hydrolysis was observed
duration of stability when bound to liposomes [2]: at least 48 hours
C/L drug DMPC Lip. ([2]; pH 7.4, 37° C.): ~ 0
t1/2 drug DMPC Lip. ([2]; pH 7.4, 37° C.): > 72 h
C/L drug DMPG Lip. ([2]; pH 7.4, 37° C.): ~ 0
t1/2 drug DMPG Lip. ([2]; pH 7.4, 37° C.): > 72 h
C/L drug DSPC Lip. ([2]; DSPC liposomes, pH 7.4, 37° C.): ~ 3.4
biologically active (lactone) form present after 48 hours [2]: more than 97%
carboxylate/lactone ratio (C/L) free drug ([2]; free in PBS, pH 7.4, 37° C.): 6.8
half-life (t1/2) of free drug in PBS ([2]; free in PBS, pH 7.4, 37° C.): 16.6 min
t1/2 free drug ([2]; free in PBS, pH 7.4, 37° C.): 16.6 min

CCC1(O)C(=O)OCc2c1cc1n(c2=O)Cc2cc3cc4c(cc3nc2-1)OCO4 (stereo not shown) [10,11-methylenedioxycamptothecin]
steady-state anisotropy (a), DMPC [1]: 0.168
steady-state anisotropy (a), DMPG [1]: 0.206
steady-state anisotropy (a), PBS [1]: 0.021
limiting fluorescence anisotropy a0 [1]: 0.374
steady-state anisotropy (a), glycerol [1]: 0.357
steady-state anisotropy (a), octanol [1]: 0.089
lactone hydrolysis when associated with liposomes [2]: little hydrolysis even at 48 hours
C/L drug DMPC Lip. ([2]; pH 7.4, 37° C.): ~ 0
t1/2 drug DMPC Lip. ([2]; pH 7.4, 37° C.): > 72 h
C/L drug DMPG Lip. ([2]; pH 7.4, 37° C.): ~ 0
t1/2 drug DMPG Lip. ([2]; pH 7.4, 37° C.): > 72 h
biologically active (lactone) form present after 48 hours [2]: more than 97%
carboxylate/lactone ratio (C/L) free drug ([2]; free in PBS, pH 7.4, 37° C.): 3.3
half-life (t1/2) of free drug in PBS ([2]; free in PBS, pH 7.4, 37° C.): 28.7 min
t1/2 free drug ([2]; free in PBS, pH 7.4, 37° C.): 28.7 min
degraded at 1 h ([2]; pH 7.4, free in PBS, less than 1 hour, read-out: drug hydrolyzed in less than 1 hour): > 70%
drug stabilized at 5 hours ([2]; sorbitan mono-oleate micelles, 5 hours): 50%

CCC1(O)C(=O)OCc2c1cc1n(c2=O)Cc2cc3cc(O)ccc3nc2-1 (stereo not shown) [10-hydroxycamptothecin]
steady-state anisotropy (a), DMPC [1]: 0.191
steady-state anisotropy (a), DMPG [1]: 0.201
steady-state anisotropy (a), PBS [1]: 0.021
limiting fluorescence anisotropy a0 [1]: 0.372
steady-state anisotropy (a), glycerol [1]: 0.331
steady-state anisotropy (a), octanol [1]: 0.127
carboxylate/lactone ratio (C/L) free drug ([2]; free in PBS, pH 7.4, 37° C.): 5.4
t1/2 free drug ([2]; free in PBS, pH 7.4, 37° C.): 23.9 min
